Measured values: PubChem BioAssay AID1963863 (Molecular Pharmacology Branch, DTP, NCI, 2024)
Where “and” joins values, the source holds several entries; their conditions need not be identical. Equal values may be shown once.

Test system: 931267-113-T-J1-PDC KRAS spheroid with HUVEC/MSC, viability
Assay: Anticancer human tumor 931267-113-T-J1-PDC patient-derived colon adenocarcinoma cell line growth inhibition [KRAS2]
Settings: for viability, T/C: stronger effect = lower value
Summary of the method: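 Combination screen of spheroid viability in tumor-cell co-cultures with endothelial (HUVEC) and mesenchymal stem cell stroma. Each agent was tested in half-log dilutions, topping at clinical Cmax or at 10 microM without a known Cmax.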

[1] = curve of first compound, second compound 0.1 µM
[2] = curve of first compound, second compound 0.316 µM
[3] = curve of first compound, second compound 1 µM
[4] = curve of first compound, second compound 3.16 µM
[5] = curve of first compound, second compound 10 µM
[6] = second compound 0.1 µM, first compound 0.0316 µM
[7] = second compound 0.1 µM, first compound 0.1 µM
[8] = second compound 0.1 µM, first compound 0.316 µM
[9] = second compound 0.1 µM, first compound 1 µM
[10] = second compound 0.1 µM, first compound 3.16 µM
[11] = second compound 0.1 µM, first compound 10 µM
[12] = second compound 0.316 µM, first compound 0.0316 µM
[13] = second compound 0.316 µM, first compound 0.1 µM
[14] = second compound 0.316 µM, first compound 0.316 µM
[15] = second compound 0.316 µM, first compound 1 µM
[16] = second compound 0.316 µM, first compound 3.16 µM
[17] = second compound 0.316 µM, first compound 10 µM
[18] = second compound 1 µM, first compound 0.0316 µM
[19] = second compound 1 µM, first compound 0.1 µM
[20] = second compound 1 µM, first compound 0.316 µM
[21] = second compound 1 µM, first compound 1 µM
[22] = second compound 1 µM, first compound 3.16 µM
[23] = second compound 1 µM, first compound 10 µM
[24] = second compound 3.16 µM, first compound 0.0316 µM
[25] = second compound 3.16 µM, first compound 0.1 µM
[26] = second compound 3.16 µM, first compound 0.316 µM
[27] = second compound 3.16 µM, first compound 1 µM
[28] = second compound 3.16 µM, first compound 3.16 µM
[29] = second compound 3.16 µM, first compound 10 µM
[30] = second compound 10 µM, first compound 0.0316 µM
[31] = second compound 10 µM, first compound 0.1 µM
[32] = second compound 10 µM, first compound 0.316 µM
[33] = second compound 10 µM, first compound 1 µM
[34] = second compound 10 µM, first compound 3.16 µM
[35] = second compound 10 µM, first compound 10 µM
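Further: compound exposure lasted 7 days before the readout.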
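Wherever viability, T/C is given: 100% = DMSO vehicle control viability.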

Compound | viability, T/C (compound 0.316 µM) | viability, T/C (compound 1 µM) | viability, T/C (compound 3.16 µM) | IC50 [1] [µM] | IC50 [2] [µM] | IC50 [3] [µM] | IC50 [4] [µM] | IC50 [5] [µM] | viability, T/C [6] [%] | viability, T/C [7] [%] | viability, T/C [8] [%] | viability, T/C [9] [%] | viability, T/C [10] [%] | viability, T/C [11] [%] | viability, T/C [12] [%] | viability, T/C [13] [%] | viability, T/C [14] [%] | viability, T/C [15] [%] | viability, T/C [16] [%] | viability, T/C [17] [%] | further results
COc1cc2nccc(Oc3ccc(NC(=O)C4(C(=O)Nc5ccc(F)cc5)CC4)cc3)c2cc1OC | 96.5% [middle of 5 runs] | 105% [middle of 5 runs] | 60.4% [middle of 5 runs] | – | – | – | – | – | – | – | – | – | – | – | – | – | – | – | – | – | IC50 (curve of compound): > 10 µM and 6.16 µM and 10 µM
CCNC(=O)CC1N=C(c2ccc(Cl)cc2)c2cc(OC)ccc2-n2c(C)nnc21 (stereo not given) + C=CC(=O)N1CCN(c2nc(=O)n(-c3c(C)ccnc3C(C)C)c3nc(-c4c(O)cccc4F)c(F)cc23)C(C)C1 | – | – | – | 2.65 | 4.87 | 4.48 | > 10 | 4.23 | 103 | 97.6 | 80.8 | 68.5 | 43 | 40.8 | 88.4 | 81.2 | 68.3 | 59.7 | 55 | 44.5 | viability, T/C [18]: 120%; viability, T/C [19]: 82.8%; viability, T/C [20]: 84.4%; viability, T/C [21]: 64.1%; viability, T/C [22]: 56.1%; viability, T/C [23]: 40.8%; viability, T/C [24]: 101%; viability, T/C [25]: 92.7%; viability, T/C [26]: 78.6%; viability, T/C [27]: 65.3%; viability, T/C [28]: 59.1%; viability, T/C [29]: 51.8%; viability, T/C [30]: 94.5%; viability, T/C [31]: 102%; viability, T/C [32]: 82.6%; viability, T/C [33]: 74.6%; viability, T/C [34]: 50.7%; viability, T/C [35]: 43%
Cn1nccc1Nc1nccc(-c2cc3c(s2)C(C)(C)N(CCN2CCOCC2)C3=O)n1 + CC1OCC2(CCN(c3cnc(Sc4ccnc(N)c4Cl)c(N)n3)CC2)C1N | – | – | – | 0.362 | 0.317 | 0.203 | 0.218 | 0.275 | 79.4 | 86.3 | 48.3 | 25.2 | 7.4 | 2.95 | 70.6 | 76.3 | 46 | 22.8 | 4.01 | 2.65 | viability, T/C [18]: 72.8%; viability, T/C [19]: 55.5%; viability, T/C [20]: 47.5%; viability, T/C [21]: 18.1%; viability, T/C [22]: 4.05%; viability, T/C [23]: 2.39%; viability, T/C [24]: 76.4%; viability, T/C [25]: 60.6%; viability, T/C [26]: 45.8%; viability, T/C [27]: 8.81%; viability, T/C [28]: 4.98%; viability, T/C [29]: 2.71%; viability, T/C [30]: 72.4%; viability, T/C [31]: 71.6%; viability, T/C [32]: 47%; viability, T/C [33]: 3.56%; viability, T/C [34]: 2.05%; viability, T/C [35]: 2.15%
CCNC(=O)CC1N=C(c2ccc(Cl)cc2)c2cc(OC)ccc2-n2c(C)nnc21 (stereo not given) | 72.3% [middle of 5 runs] | 60.5% [middle of 5 runs] | 47.1% [middle of 5 runs] | – | – | – | – | – | – | – | – | – | – | – | – | – | – | – | – | – | viability, T/C (compound 0.0316 µM): 92.4% [middle of 5 runs]; viability, T/C (compound 0.1 µM): 83% [middle of 5 runs]; viability, T/C (compound 10 µM): 40.2% [middle of 5 runs]
